According to patent publication US5002949A, “5-substituted-6-aminopyrimidine derivatives” (American Home Products Corporation, priority 1990, dated 1991):
Structures can show the parent of a compound that is named as a salt.

Experiments:
white thrombus formation = assay: inhibition of white thrombus formation in the rabbit arteriovenous model; format: in vivo
[1] = tested on: platelet aggregation induced by epinephrine; assay: inhibition of platelet aggregation induced by epinephrine; format: cell-based; settings: Epinephrine (second phase)
Text: (§1) As representative compounds, 5-bromo-6-[[(5-bromo-3-pyridinylmethyl]amino]-2-methyl-4(1H)-pyrimidinone,HBr (Compound A) and 5-cyano-2-methyl-6-[[3-pyridinyl)methyl)]amino]-4(1H)-pyrimidinone hydrochloride (Compound B) inhibited platelet aggregation as follows.

[2] = tested on: platelet aggregation induced by collagen; assay: inhibition of platelet aggregation induced by collagen; format: cell-based
Text: as §1

[3] = tested on: platelet aggregation induced by adenosine diphosphate; assay: inhibition of platelet aggregation induced by adenosine diphosphate (ADP); format: cell-based; settings: ADP (second phase)
Text: as §1

[4] = tested on: platelet aggregation induced by arachidonic acid; assay: inhibition of platelet aggregation induced by arachidonic acid; format: cell-based
Text: as §1

[5] = tested on: platelet aggregation induced by U46619 (endoperoxide); assay: inhibition of platelet aggregation induced by U46619 (endoperoxide); format: cell-based
Text: as §1

Row | IC50 [1] | IC50 [2] | IC50 [3] | IC50 [4] | IC50 [5] | SMILES | Percent Inhibition (thrombus weight) (white thrombus formation; 0.5 mg/kg i.v.) | Percent Inhibition (thrombus weight) (white thrombus formation; 1.0 mg/kg i.v.) | Percent Inhibition (thrombus weight) (white thrombus formation; 5.0 mg/kg i.v.) | Percent Inhibition (thrombus weight) (white thrombus formation; 0.1 mg/kg i.v.) | Percent Inhibition (thrombus weight) (white thrombus formation; 0.25 mg/kg i.v.)
1 | 10800 nM | 13300 nM | 6300 nM | 2800 nM | 6600 nM | Cc1nc(NCc2cccnc2)c(C#N)c(=O)[nH]1 [Compound B, 5-cyano-2-methyl-6-[[3-pyridinyl)methyl)]amino]-4(1H)-pyrimidinone hydrochloride] | 41.7% | 56.8% | 76.7% | – | –
2 | 430 nM | 540 nM | 200 nM | 180 nM | 210 nM | Cc1nc(NCc2cncc(Br)c2)c(Br)c(=O)[nH]1 [Compound A] | – | – | – | 28.4% | 47.1%
